Results: US20140057979A1, “Expression Modulator For Clock Gene” (Shiseido Company, Ltd., priority 2012, published 2014)

Columns and labels:
Format in all cases: cell-based
hBmal1 gene [1] = assay: Clock gene expression regulation, hBmal1 expressed amount by RT-PCR in cultured human skin fibroblast cells; details: for Relative expressed amount of hBmal1 (16 hours): 50 ppm test substance, 16 hours after addition, relative to RPLP0, control 0.48, *p < 0.05; for expressed amount of hBmal1 gene in comparison with the control: 50 ppm, 16 hours, Dunnett's test one-sided 5%
Description: (§1) The results above confirm that in an evaluation system using cultured human skin fibroblast cells, clock genes acquire a circadian rhythm when stimulated with cortisol. Because it is desirable to evaluate during a time period when the expressed amount is high, the clock gene expression regulation effects of the test substances were evaluated based on the expressed amount of the clock gene 16 hours after stimulation in the case of hBmal1 and 2 hours after stimulation in the case of hPer1.
(§2) Fibroblasts cells from normal human skin (Cell Application, Inc.) were seeded by methods similar to those used above, each chemical was added on the 6th day of culture to a concentration of 50 ppm, and the cells were sampled after 2 hours and after 16 hours. The same amount of ethanol was added instead of the test substance as a control. RNA was extracted from the cells with a commercial RNA extraction kit, and the expressed amounts of the hBmal1 and hPer1 genes were measured by RT-PCR using a commercial PCR primer (Perfect Real Time Primer, Takara Bio). Similarly, the expressed amount of the housekeeping gene RPLP0 was assayed and used as an internal standard to calculate the expressed amounts of the target genes relative to the expressed amount of RPLP0. Dunnett's multiple comparison test was performed on the obtained values, and an effect was recognized if there was a significant difference with a one-sided 5% risk factor in comparison with the control.

hPer1 gene [2] = assay: Clock gene expression regulation, hPer1 expressed amount by RT-PCR in cultured human skin fibroblast cells; details: for Relative expressed amount of hPer1 (2 hours): 50 ppm test substance, 2 hours after addition, relative to RPLP0, control 0.24, *p < 0.05; for expressed amount of hPer1 gene in comparison with the control: 50 ppm, 2 hours, Dunnett's test one-sided 5%
Description: as §1, §2

hBmal1 gene [3] = assay: Induction of circadian rhythm of hBmal1 expression with cortisol in cultured human skin fibroblast cells; details: 50 ng/ml cortisol, 2 hours of treatment, cells sampled over time (FIG. 2)
Description: (§3) It was confirmed that a circadian rhythm of clock gene expression can be induced in a system using cultured human skin fibroblast cells.
(§4) As the cultured human fibroblast cells, fibroblast cells from normal human skin were purchased (Cell Application, Inc.) and used in the experiments. They were seeded on DMEM medium with 10% FBS, 20 mM HEPES, Glutamax and an antibacterial agent added thereto, and cultured at 37° C. in 5% CO2. On the 6th day of culture, 50 ng/ml of cortisol was added, and after 2 hours of treatment the cells were sampled over time. RNA was extracted from the cells with a commercial RNA extraction kit, and the expressed amounts of the hBmal1 and hPer1 genes were measured by RT-PCR using a commercial PCR primer (Perfect Real Time Primer, Takara Bio). Similarly, the expressed amount of the housekeeping gene RPLP0 was assayed and used as an internal standard to calculate the expressed amounts of the target genes relative to the expressed amount of RPLP0.
(§5) In the body, cortisol and other glucocorticoids are involved in regulating the biological clock in peripheral tissue and the like, and it is thought that blood concentrations of cortisol rise at the time of awakening in the morning, resetting the biological clock. […]

hPer1 gene [4] = assay: Induction of circadian rhythm of hPer1 expression with cortisol in cultured human skin fibroblast cells; details: 50 ng/ml cortisol, 2 hours of treatment, cells sampled over time (FIG. 2)
Description: as §3, §4, §5

| Compound | Relative expressed amount of hBmal1 (16 hours) (hBmal1 gene [1]) | expressed amount of hBmal1 gene in comparison with the control (hBmal1 gene [1]) | Relative expressed amount of hPer1 (2 hours) (hPer1 gene [2]) | expressed amount of hPer1 gene in comparison with the control (hPer1 gene [2]) | cycle of circadian rhythm of hBmal1 expression as a result of cortisol stimulation (hBmal1 gene [3]) | cycle of circadian rhythm of hPer1 expression as a result of cortisol stimulation (hPer1 gene [4]) |
| --- | --- | --- | --- | --- | --- | --- |
| COC(=O)c1ccccc1N [Methyl 2-aminobenzoate] | 1.19* | significantly increased | 0.64* | significantly increased |  |  |
| COC(=O)c1ccccc1C [Methyl 2-methylbenzoate, methyl 2-methylbenzoate] | 1.01* | significantly increased | 0.44* | significantly increased |  |  |
| C=C1CC[C@H]2O[C@]2(C)CC[C@@H]2[C@@H]1CC2(C)C [Caryophyllene oxide, (1R,4R,6R,10S)-4,12,12-trimethyl-9-methylene-5-oxatricyclo[8.2.0.04.6]dodecane] | 3.50* | significantly increased | 2.29* | significantly increased |  |  |
| C[C@]12CCC(=O)C=C1CC[C@@H]1[C@@H]2[C@@H](O)C[C@@]2(C)[C@H]1CC[C@]2(O)C(=O)CO [cortisol] |  |  |  |  | roughly 24 hour | roughly 24 hour |
| CNc1ccccc1C(=O)OC [Methyl 2-methylaminobenzoate] | 2.52* | significantly increased | 0.64* | significantly increased |  |  |
